The results in this text go back to patent publication US4486419A, “5,2',3',4',4",6"-Hexadeoxykanamycin and its 1-N-acylated derivative” (Zaidan Hojin Biseibutsu Kagaku Kenkyu Kai, priority 1982, dated 1984).

Type in all cases: cell-based
The subject of assay [1] is Escherichia coli K-12 LA 290 R55. In words: microbe, parasite or virus in culture. As to conditions: K12LA290R55, 18 h.
The subject of assay [2] is Salmonella enteritidis 1891. As to conditions: Salmonella enterica, nutrient agar, 37° C., 18 hours.
Assay [3] deals with Escherichia coli K-12 J5R 11-2. As to conditions: K12J5R112, nutrient agar, 37° C., 18 hours.
Assay [4] concerns Pseudomonas maltophilia GN907. The conditions noted are these: Stenotrophomonas maltophilia, nutrient agar, 37° C., 18 hours.
In assay [5] the test system is Klebsiella pneumoniae 22 #3038. As to conditions: nutrient agar, 37° C., 18 hours.
In assay [6] the test system is Escherichia coli K-12 ML 1629. As to conditions: K12ML1629, nutrient agar, 37° C., 18 hours.
Assay [7] has as its system Escherichia coli K-12 ML 1630. As to conditions: K12ML1630, nutrient agar, 37° C., 18 hours.
Assay [8] relates to Bacillus subtilis NRRL B-558. The conditions noted are these: NRRLB558, nutrient agar, 37° C., 18 hours.
The test system of assay [9] is Staphylococcus aureus Ap01. The conditions noted are these: nutrient agar, 37° C., 18 hours.
Assay [10] has as its system Klebsiella pneumoniae PCI 602. As to conditions: PCI602, nutrient agar, 37° C., 18 hours.
In assay [11] the test system is Micrococcus luteus PCI 1001. As to conditions: PCI1001, nutrient agar, 37° C., 18 hours.
The subject of assay [12] is kanamycin-resistant bacteria. In words: antibacterial activity against kanamycin-resistant bacteria (in words). The conditions noted are these: even with the kanamycin-resistant bacteria.
Assay [13] has as its system bacterial strains. In words: antibacterial activity (in words).

≈ marks a conversion by molar mass, not a printed value.

`NCC[C@H](O)C(=O)N[C@@H]1C[C@H](N)[C@@H](O[C@H]2O[C@H](CN)[C@@H](O)[C@H](O)[C@H]2O)[C@H](O)[C@H]1O[C@H]1O[C@H](CO)[C@@H](O)[C@H](N)[C@H]1O` [Amikacin, 1-N-[(S)-4-amino-2-hydroxybutyryl]kanamycin A, reference compound]: the MIC in assay [1] was 1.56 µg/mL (≈ 2.66 µM); in assay [2] it was 1.56 µg/mL (≈ 2.66 µM); in [3], 1.56 µg/mL (≈ 2.66 µM); in assay [4], over 100 µg/mL; in [5], 3.13 µg/mL (≈ 5.34 µM); in [6] it was 1.56 µg/mL (≈ 2.66 µM). Besides, the MIC in [7] was found to be 3.13 µg/mL (≈ 5.34 µM); in assay [8], 0.39 µg/mL (≈ 0.666 µM); in [9], 1.56 µg/mL (≈ 2.66 µM); in assay [10], 0.78 µg/mL (≈ 1.33 µM); in [11] it was 3.13 µg/mL (≈ 5.34 µM).

As to `C[C@@H]1C[C@H](N)[C@@H](O)[C@@H](O[C@@H]2C[C@H](O[C@@H]3CCC[C@@H](CN)O3)[C@@H](N)C[C@H]2NC(=O)[C@@H](O)CCN)O1` [Hexadeoxyamikacin, 1-N-[(S)-4-amino-2-hydroxybutyryl]-5,2',3',4',4",6"-hexadeoxykanamycin], the MIC in assay [1] is 1.56 µg/mL (≈ 3.19 µM); in assay [2], 3.13 µg/mL (≈ 6.39 µM); in assay [3], 1.56 µg/mL (≈ 3.19 µM); in [4] it was over 100 µg/mL; in [5], 3.13 µg/mL (≈ 6.39 µM); in assay [6] it was 1.56 µg/mL (≈ 3.19 µM). The MIC amounted to 3.13 µg/mL (≈ 6.39 µM) in assay [7]; 0.78 µg/mL (≈ 1.59 µM) in assay [8]; 3.13 µg/mL (≈ 6.39 µM) in assay [9]; 1.56 µg/mL (≈ 3.19 µM) in [10]; 6.25 µg/mL (≈ 12.8 µM) in [11]. Moreover, in [12], the “antibacterial activity compared with amikacin” value was “antibacterial activity as high as that of amikacin”.

Turning to `C[C@@H]1C[C@H](N)[C@@H](O)[C@@H](O[C@@H]2C[C@H](O[C@@H]3CCC[C@@H](CN)O3)[C@@H](N)C[C@H]2N)O1` [Hexadeoxykanamycin, 5,2',3',4',4",6"-hexadeoxykanamycin], the MIC in assay [1] is 100 µg/mL (≈ 257 µM); in assay [2], 1.56 µg/mL (≈ 4.02 µM); in [3], 25 µg/mL (≈ 64.3 µM); in [4], over 100 µg/mL; in assay [5] it was over 100 µg/mL; in assay [6], 25 µg/mL (≈ 64.3 µM). The MIC in assay [7] turned out to be 25 µg/mL (≈ 64.3 µM); in assay [8] it was 0.78 µg/mL (≈ 2.01 µM); in assay [9] it was 3.13 µg/mL (≈ 8.06 µM); in [10], 1.56 µg/mL (≈ 4.02 µM); in [11] it was 12.5 µg/mL (≈ 32.2 µM). In addition, in assay [13], the antibacterial activity entry is “antibacterial activity as high as that of the parent kanamycin A”.
